# Assay results from PubChem BioAssay AID328 (DTP/NCI, 2004).
# Values joined by “and” are separate entries in the source; they are usually repeats but may differ in a detail not shown here. Equal values may be shown once. Inconclusive results and toxic doses are left out.
# Tested on: BDF1 mice, P388 leukemia ip, median survival T/C
# Assay: NCI In Vivo Anticancer Drug Screen. Data for tumor model P388 Leukemia (intraperitoneal) in B6D2F1 (BDF1) mice
# Details: endpoint: median survival time, higher = longer survival
# Summary of the method: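 Compound-treated tumour-bearing mice were compared with vehicle-treated controls. Survival was recorded, and the value is the treated-group measurement divided by the control-group measurement (T/C).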
# [1] = dose: 0.5 mg/kg/injection, schedule: Q01DX009 (ip), vehicle: saline
# [2] = dose: 1.0 mg/kg/injection, schedule: Q01DX009 (ip), vehicle: saline
# [3] = dose: 2.0 mg/kg/injection, schedule: Q01DX009 (ip), vehicle: saline
# [4] = dose: 25.0 mg/kg/injection, schedule: Q01DX009 (ip), vehicle: saline with Tween-80
# [5] = dose: 50.0 mg/kg/injection, schedule: Q01DX009 (ip), vehicle: saline with Tween-80
# [6] = dose: 100.0 mg/kg/injection, schedule: Q01DX009 (ip), vehicle: saline with Tween-80
# [7] = dose: 100.0 mg/kg/injection, schedule: Q04DX003 (ip), vehicle: saline with Tween-80
# [8] = dose: 12.5 mg/kg/injection, schedule: Q01DX009 (ip), vehicle: saline with Tween-80
# [9] = dose: 50.0 mg/kg/injection, schedule: Q01DX009 (ip), vehicle: saline
# [10] = dose: 50.0 mg/kg/injection, schedule: Q04DX003 (ip), vehicle: saline
# [11] = dose: 100.0 mg/kg/injection, schedule: Q01DX009 (ip), vehicle: saline
# [12] = dose: 100.0 mg/kg/injection, schedule: Q04DX003 (ip), vehicle: saline
# [13] = dose: 100.0 mg/kg/injection, schedule: Q01DX009 (ip), vehicle: Klucel (hydroxypropylcellulose) (HPC)
# [14] = dose: 200.0 mg/kg/injection, schedule: Q01DX009 (ip), vehicle: Klucel (hydroxypropylcellulose) (HPC)
# [15] = dose: 400.0 mg/kg/injection, schedule: Q01DX009 (ip), vehicle: Klucel (hydroxypropylcellulose) (HPC)
# [16] = dose: 200.0 mg/kg/injection, schedule: Q01DX009 (ip), vehicle: saline with Tween-80
# [17] = dose: 50.0 mg/kg/injection, schedule: Q01DX009 (ip), vehicle: Klucel (hydroxypropylcellulose) (HPC)
smiles,measurement,setting,value
CSc1nc(Cl)cc(N2CC2)n1,T/C,"dose: 0.19 mg/kg/injection, schedule: Q04DX003 (ip), vehicle: saline",104 % of control
same,T/C,"dose: 0.39 mg/kg/injection, schedule: Q01DX009 (ip), vehicle: saline",95 % of control
same,T/C,"dose: 0.39 mg/kg/injection, schedule: Q04DX003 (ip), vehicle: saline",109 % of control
same,T/C,[1],91 % of control
same,T/C,"dose: 0.78 mg/kg/injection, schedule: Q01DX009 (ip), vehicle: saline",100 % of control
same,T/C,"dose: 0.78 mg/kg/injection, schedule: Q04DX003 (ip), vehicle: saline",100 % of control
same,T/C,[2],116 % of control
same,T/C,[3],95 % of control
same,T/C,"dose: 3.6 mg/kg/injection, schedule: Q04DX003 (ip), vehicle: saline",100 % of control
c1ccc(-c2csc3c4ccccc4c4ccccc4[n+]23)cc1,T/C,[1],100 % of control
same,T/C,[2],104 % of control
same,T/C,[3],118 % of control
same,T/C,"dose: 4.0 mg/kg/injection, schedule: Q01DX009 (ip), vehicle: saline",113 % of control
same,T/C,"dose: 8.0 mg/kg/injection, schedule: Q01DX009 (ip), vehicle: saline",100 % of control
CCCCCCCCCCCCOB(OCCCCCCCCCCCC)OCCCCCCCCCCCC,T/C,[4],100 % of control
same,T/C,"dose: 25.0 mg/kg/injection, schedule: Q04DX003 (ip), vehicle: saline with Tween-80",91 % of control
same,T/C,[5],108 % of control
same,T/C,"dose: 50.0 mg/kg/injection, schedule: Q04DX003 (ip), vehicle: saline with Tween-80",95 % of control
same,T/C,[6],100 % of control
same,T/C,[7],116 % of control
CCCC1([N+](C)(C)C)CSC1CC (stereo not given),T/C,"dose: 12.5 mg/kg/injection, schedule: Q04DX002 (ip), vehicle: saline",105 % of control
same,T/C,"dose: 25.0 mg/kg/injection, schedule: Q04DX002 (ip), vehicle: saline",103 % of control
same,T/C,"dose: 50.0 mg/kg/injection, schedule: Q04DX002 (ip), vehicle: saline",96 % of control
Cc1ccc(NS(=O)(=O)c2ccc([N+](=O)[O-])cc2)cc1,T/C,[8],90 % of control
same,T/C,"dose: 33.0 mg/kg/injection, schedule: Q01DX009 (ip), vehicle: saline with Tween-80",100 % of control
same,T/C,[5],90 % of control and 100 % of control
same,T/C,"dose: 75.0 mg/kg/injection, schedule: Q01DX009 (ip), vehicle: saline with Tween-80",95 % of control
same,T/C,[6],100 % of control
CCOC(=O)/C(C)=C\c1c(C)[nH]c(=O)[nH]c1=O,T/C,[9],102 % of control
same,T/C,[10],104 % of control
same,T/C,[11],103 % of control
same,T/C,[12],100 % of control
same,T/C,"dose: 200.0 mg/kg/injection, schedule: Q01DX009 (ip), vehicle: saline",99 % of control
same,T/C,"dose: 200.0 mg/kg/injection, schedule: Q04DX003 (ip), vehicle: saline",95 % of control and 100 % of control
same,T/C,"dose: 400.0 mg/kg/injection, schedule: Q01DX009 (ip), vehicle: saline",96 % of control
same,T/C,"dose: 400.0 mg/kg/injection, schedule: Q04DX003 (ip), vehicle: saline",91 % of control and 95 % of control
SC1CC[N-]CC1.SC1CC[N-]CC1.[Cl][Pt+2][Cl],T/C,"dose: 50.0 mg/kg/injection, schedule: Q01DX009 (ip), vehicle: water",107 % of control
same,T/C,"dose: 100.0 mg/kg/injection, schedule: Q01DX009 (ip), vehicle: water",91 % of control
same,T/C,"dose: 100.0 mg/kg/injection, schedule: Q04DX003 (ip), vehicle: water",98 % of control
same,T/C,"dose: 200.0 mg/kg/injection, schedule: Q04DX003 (ip), vehicle: water",98 % of control
same,T/C,"dose: 400.0 mg/kg/injection, schedule: Q04DX003 (ip), vehicle: water",96 % of control
N#CCCC1(CCC#N)c2ccccc2-c2ccccc21,T/C,[13],92 % of control
same,T/C,"dose: 100.0 mg/kg/injection, schedule: Q04DX003 (ip), vehicle: Klucel (hydroxypropylcellulose) (HPC)",96 % of control
same,T/C,[14],92 % of control
same,T/C,"dose: 200.0 mg/kg/injection, schedule: Q04DX003 (ip), vehicle: Klucel (hydroxypropylcellulose) (HPC)",112 % of control
same,T/C,[15],92 % of control
same,T/C,"dose: 400.0 mg/kg/injection, schedule: Q04DX003 (ip), vehicle: Klucel (hydroxypropylcellulose) (HPC)",92 % of control
CSc1nc(=O)c(=O)nc(Nc2ccccc2)n1-c1ccccc1,T/C,[8],88 % of control
same,T/C,[4],95 % of control
same,T/C,[5],88 % of control
ClCc1ccc2ccccc2n1,T/C,[5],113 % of control
same,T/C,[6],122 % of control
same,T/C,"dose: 132.0 mg/kg/injection, schedule: Q01DX009 (ip), vehicle: saline with Tween-80",113 % of control
same,T/C,[16],122 % of control
same,T/C,"dose: 300.0 mg/kg/injection, schedule: Q01DX009 (ip), vehicle: saline with Tween-80",104 % of control
CCCc1c(N)c2ccccc2c2ccccc12,T/C,"dose: 100.0 mg/kg/injection, schedule: Q04DX002 (ip), vehicle: saline with Tween-80",86 % of control
same,T/C,"dose: 200.0 mg/kg/injection, schedule: Q04DX002 (ip), vehicle: saline with Tween-80",96 % of control
same,T/C,"dose: 400.0 mg/kg/injection, schedule: Q04DX002 (ip), vehicle: saline with Tween-80",102 % of control
CC1=CCS(=O)(=O)C1,T/C,"dose: 25.0 mg/kg/injection, schedule: Q01DX001 (ip), vehicle: other",95 % of control
same,T/C,"dose: 25.0 mg/kg/injection, schedule: Q01DX009 (ip), vehicle: saline",113 % of control
same,T/C,"dose: 25.0 mg/kg/injection, schedule: Q04DX003 (ip), vehicle: saline",91 % of control
same,T/C,"dose: 50.0 mg/kg/injection, schedule: Q01DX001 (ip), vehicle: other",86 % of control
same,T/C,[9],100 % of control
same,T/C,[10],87 % of control
same,T/C,"dose: 100.0 mg/kg/injection, schedule: Q01DX001 (ip), vehicle: other",95 % of control
same,T/C,[11],109 % of control
same,T/C,[12],91 % of control
c1ccc2c[n+]3ccccc3cc2c1,T/C,"dose: 6.25 mg/kg/injection, schedule: Q01DX009 (ip), vehicle: saline",95 % of control
same,T/C,"dose: 8.75 mg/kg/injection, schedule: Q04DX003 (ip), vehicle: saline",100 % of control
same,T/C,"dose: 12.5 mg/kg/injection, schedule: Q01DX009 (ip), vehicle: Klucel (hydroxypropylcellulose) (HPC)",100 % of control
same,T/C,"dose: 12.5 mg/kg/injection, schedule: Q01DX009 (ip), vehicle: saline",104 % of control
same,T/C,"dose: 17.5 mg/kg/injection, schedule: Q04DX003 (ip), vehicle: saline",95 % of control
same,T/C,"dose: 25.0 mg/kg/injection, schedule: Q01DX009 (ip), vehicle: Klucel (hydroxypropylcellulose) (HPC)",95 % of control
Nc1ccc(C(=O)O)cc1S(=O)(=O)c1cc(C(=O)O)ccc1N,T/C,[17],88 % of control
same,T/C,[13],91 % of control
COc1ccc(/C=C2\SC(=S)N(CCCN3CCOCC3)C2=O)c(OC)c1,T/C,[5],97 % of control
same,T/C,[6],92 % of control
same,T/C,[16],95 % of control
O=NN(CCCl)C(=O)Nc1ccc2c3c(cccc13)-c1ccccc1-2,T/C,[17],156 % of control and 157 % of control
same,T/C,[13],156 % of control and 157 % of control
same,T/C,[14],161 % of control and 170 % of control
same,T/C,[15],93 % of control
NC(=O)C1=NNc2ccccc2C(=O)N1c1ccccc1,T/C,[7],108 % of control
same,T/C,"dose: 200.0 mg/kg/injection, schedule: Q04DX003 (ip), vehicle: saline with Tween-80",113 % of control
same,T/C,"dose: 400.0 mg/kg/injection, schedule: Q04DX003 (ip), vehicle: saline with Tween-80",103 % of control
O=C1CCSC(=O)N1SC(Cl)(Cl)Cl,T/C,"dose: 12.0 mg/kg/injection, schedule: Q01DX009 (ip), vehicle: saline with Tween-80",120 % of control
same,T/C,[4],110 % of control
same,T/C,[5],100 % of control
O=C(O)c1cc(C(Cl)(Cl)Cl)ccc1C(Cl)(Cl)Cl,T/C,"dose: 100.0 mg/kg/injection, schedule: Q04DX003 (ip), vehicle: saline sonified",95 % of control
same,T/C,"dose: 400.0 mg/kg/injection, schedule: Q04DX003 (ip), vehicle: saline sonified",104 % of control
